Measured values as given in patent US7566722B2, “Triazolopyrimidine derivatives as ADP P2Y12 receptor antagonists” (Janssen Pharmaceutica, N.V., priority 2006, dated 2009).

Key:
ADP P2Y12 receptor = target: T1, ADP P2Y12 receptor (Homo sapiens, UniProt Q9H244); experiment: FLIPR calcium assay transducing Gi-coupled signaling to the Gq pathway (inhibition of ADP-induced calcium mobilization); format: cell-based; conditions: HEK 293 cells co-transfected with P2Y12 and Gqi5, ADP at EC60-70 dose
T1 construct: expressed in transfected cells
T1 sequence (Q9H244 whole entry): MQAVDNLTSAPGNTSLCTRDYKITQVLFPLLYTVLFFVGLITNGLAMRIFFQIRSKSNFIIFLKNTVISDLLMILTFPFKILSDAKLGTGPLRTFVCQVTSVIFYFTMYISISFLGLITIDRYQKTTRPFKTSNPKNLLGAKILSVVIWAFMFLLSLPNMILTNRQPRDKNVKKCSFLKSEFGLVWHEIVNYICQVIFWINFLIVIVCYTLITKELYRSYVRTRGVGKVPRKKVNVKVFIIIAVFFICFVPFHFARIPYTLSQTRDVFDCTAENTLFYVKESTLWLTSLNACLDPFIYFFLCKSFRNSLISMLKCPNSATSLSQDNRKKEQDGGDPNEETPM
Description: A FLIPR Calcium Assay Transducing Gi-Coupled Signaling to the Gq Pathway
The ADP P2Y12 subtype is a Gi coupled GPCR, which mediates inhibition of adenylate cyclase leading to decreased cAMP while Gq proteins primarily activate phospholipase C, which stimulates inositol-1,4,5-triphosphate (IP3) formation and a subsequent increase in intracellular Ca^2+ concentration, which can be easily measured by FLIPR. Prior to the development of a method to convert a Gi coupled GPCR signaling to a Gq coupled GPCR signaling, a significant barrier existed for the functional testing and screening of Gi coupled GPCRs. One popular method, GTPγS migration, is slow, produces a small signal and generates radioactive waste. The discovery that a small switch in the amino acid sequence in the Gi protein could convert it to a protein mediating a Gq coupled response has led to the development of robust, high throughput assays for this valuable receptor subtype.
The FLIPR-based HTS assay transducing the Gi signaling to the Gq pathway is described below.
pcDNA3hygroP2Y12 containing a hygromycin resistance gene and pLEC1-Gqi5-HA containing a neomycin resistance gene (licensed from Molecular Devices, Sunnyvale, Calif.) were co-transfected into Human embryonic kidney (HEK) 293 cells with SuperFect (Qiagen, Valencia, Calif.). Cell clones were selected in the presence of 600 μg/ml hygromycin B (Life Technologies, Carlsbad, Calif.) and 1 mg/ml of G418 (Mediatech, Herndon, Va.). Drug resistant colonies were picked and screened by FLIPR and the gene expression was further confirmed by RT-PCR. Positive clones were maintained in growth medium (DMEM supplemented with 10% FBS, 1× p/s) containing 400 μg/ml of G418 and 200 μg/ml of hygromycin.
The day before the assay, cells are seeded in clear, flat-bottom black-wall, tissue culture treated polystyrene 96- or 384-well plates and incubated at 37° C., 5% CO2. 50 μl of complete dye loading solution (FLIPR Calcium Assay Kit, Molecular Devices) was added to each well containing 100 μl of culture media. The cells were incubated for at least 30 min at 37° C., in 5% CO2 before initiating the assay on the FLIPR. The agonist effect of ADP was tested and EC50 was determined prior to compound testing. The EC60-70 dose was used.
The antagonist compounds were prepared at 4× and the agonists were diluted at 5× the concentration desired in the test wells, and then aliquoted into the sample plates. The sample plates and the cell plate were placed in the FLIPR assay chamber. A first addition (50 μl) was made at the start of reading and a second addition (50 μl) was made after 5 min of reading. Raw fluorescence data was exported for each well and tabulated versus time within an ASCII file. Data was then imported into Excel and the peak response over the basal level was determined. The percent inhibition for each compound was calculated by the change in fluorescent density as a % inhibition of the control ADP response to obtain an IC50, as shown in Table 1 (wherein N/A means Not Applicable).

P2Y12 receptor = target: T2, P2Y12 receptor (Homo sapiens, UniProt Q9H244); experiment: Whole cell receptor binding assay, 2-MeS[3H]-ADP; conditions: HEK 293 cells stably transfected with P2Y12; 2-MeS[3H]-ADP 3 nM; 30 min at 37° C.; read-out: Inhibition of Receptor Binding (IC50 μM)
T2 construct: expressed in transfected cells
T2 sequence (Q9H244 whole entry): as above
Method: A whole cell-binding assay for 2-MeS [^3H]-ADP (Custom synthesized by Amersham BioScience, Piscataway, N.J.) to the P2Y12 receptor was performed.
A P2Y12 cDNA containing hygromycin resistant gene was transfected in HEK 293 cells. A stable cell line was obtained by a cloning selection method. The cells were cultured in DMEM supplemented with 10% FBS and 1× of p/s.
On the day of the assay, the cells were harvested and resuspended in 0.25% BSA-DMEM and adjusted to a cell concentration of 1.6×10^6/ml. 15 μl of each compound was mixed with 120 μl of cell suspension in 96 well assay plates and incubated for 5 min prior to the addition of the radio-labeled ligand 2-MeS[^3H]-ADP (3 nM final in 0.25% BSA-DMEM) or unlabeled […] (for non-specific binding). The reaction was then incubated for 30 min at 37° C. and stopped by adding cold DMEM. The labeled and unlabeled cells were separated by a filtration method using a Packard Filtermate 196 on to the unfilter-96 GF/B plate. The plates were dyed in a 37° C. oven for 1-2 hours and 50 μl of MicroScint-20 (PerkinElmer) was added to each well. The radioactivity was measured using a TOPCOUNT beta counter (Packard). The percent inhibition for each compound was calculated by the change in radioactivity as a % inhibition of the control to obtain an IC50, as shown in Table 2.

platelets = experiment: In vitro platelet aggregation (ADP-induced, washed platelets); format: cell-based; conditions: Homo sapiens, washed platelets from healthy volunteers, agonist giving 60-70% aggregation, % inhibition of control ADP response
Method: Platelet aggregation studies were performed according to a published method (Bednar, B., Condra, C., Gould, R. J., and Connolly, T. M., Throm. Res., 77:453-463 (1995). Platelet-rich plasma (PRP) concentrates prepared from healthy volunteers who were aspirin free for at least 7 days by venipuncture using ACD-A as anticoagulant was purchased from Biological Specialties, Inc. (Colmar, Pa.). PRP was centrifuged at 730 g for 15 min. The platelet pellet was washed twice in CGS buffer (13 mM sodium citrate, 30 mM glucose, 120 mM NaCl, pH 6.5) containing 1 μ/ml apyrase (grade V, Sigma-Aldrich, St. Louis, Mo.), 1 mM EGTA, and resuspended in Tyrode's buffer (140 mM NaCl, 2.7 mM KCl, 12 mM NaHCO3, 0.76 mM Na2HPO4, 5.5 mM dextrose, 5.0 mM Hepes, 0.2% BSA, pH 7.4). The platelets were diluted to 3×10^8 platelets/ml and kept >45 min at 37° C. before use. 105 μl of washed platelets, 2 mM CaCl2 and […] of fibrinogen were added to a 96-well microliter plate.
Platelet aggregation was initiated by the addition of serial concentrations of ADP (BioData Corp. Horsham, Pa.). Buffer was added to one set of control wells. The assay plate was stirred constantly and intermittently placed in a microplate reader (Softmax, Molecular Devices, Menlo Park, Calif.) to read optical density (650 nm) at 0 and 5 minutes after the addition of the compound solutions. Aggregation was calculated as the decrease in optical density between the time 0- and 5-min measurements and expressed as % of aggregation. For the inhibition assay, platelet aggregation was conducted as described above except for compound additions. Test compounds were prepared in 100% DMSO and stored.
On the day of the assay, test compounds were diluted in the buffer containing 3% of DMSO as a 10× working solution. 15 μl of compound solutions were added to 105 μl of platelets 5 min prior to the addition of CaCl2 and fibrinogen.

Row | IC50 (ADP P2Y12 receptor) [µM] | IC50 (P2Y12 receptor) [µM] | Compound | IC50 (platelets) [µM]
1 | 0.507 | 0.134 | CCCSc1nc(N[C@@H]2C[C@H]2c2ccccc2)c2nnn([C@@H]3C[C@H](Cn4ccnn4)[C@@H](O)[C@H]3O)c2n1 (mixture of isomers) [Cpd 7, (1R,2S,3R,5R)-3-{7-[(1RS,2SR)-2-phenyl-cyclopropylamino]-5-propylsulfanyl-[1,2,3]triazolo[4,5-d]pyrimidin-3-yl}-5-[1,2,3]triazol-1-ylmethyl-cyclopentane-1,2-diol] | 0.333
2 | 0.155 | 0.0659 | CCCSc1nc(N[C@@H]2C[C@H]2c2ccccc2)c2nnn([C@@H]3C[C@H](c4nnc[nH]4)[C@@H](O)[C@H]3O)c2n1 (mixture of isomers) [Cpd 21, (1R,2S,3R,5R)-3-{7-[(1RS,2SR)-2-phenyl-cyclopropylamino]-5-propylsulfanyl-[1,2,3]triazolo[4,5-d]pyrimidin-3-yl}-5-(4H-[1,2,4]triazol-3-yl)-cyclopentane-1,2-diol] | 0.046
3 | > 30 | 4.61 | CCCCNc1nc(SCCC)nc2c1nnn2[C@@H]1C[C@H](C2=NCCN2)[C@@H](O)[C@H]1O [Cpd 11, (1R,2S,3R,5R)-3-(7-butylamino-5-propylsulfanyl-[1,2,3]triazolo[4,5-d]pyrimidin-3-yl)-5-(4,5-dihydro-1H-imidazol-2-yl)-cyclopentane-1,2-diol] | > 30
4 | 0.024 | 0.002 | CCCSc1nc(N[C@@H]2C[C@H]2c2ccccc2)c2nnn([C@@H]3C[C@H](c4nnn[nH]4)[C@@H](O)[C@H]3O)c2n1 [Cpd 22, (1R,2S,3R,5R)-3-{7-[(1R,2S)-2-phenyl-cyclopropylamino]-5-propylsulfanyl-[1,2,3]triazolo[4,5-d]pyrimidin-3-yl}-5-(1H-tetrazol-5-yl)-cyclopentane-1,2-diol] | 0.002
5 | 0.805 | 0.26 | CCCSc1nc(N[C@@H]2C[C@H]2c2ccccc2)c2nnn([C@@H]3C[C@H](Cn4ccnc4)[C@@H](O)[C@H]3O)c2n1 (mixture of isomers) [Cpd 5, (1S,2R,3R,5R)-3-imidazol-1-ylmethyl-5-{7-[(1RS,2SR)-2-phenyl-cyclopropylamino]-5-propylsulfanyl-[1,2,3]triazolo[4,5-d]pyrimidin-3-yl}-cyclopentane-1,2-diol] | 0.529
6 | > 30 | 9.59 | CCCSc1nc(NC[C@H](C)c2ccccc2)c2nnn([C@@H]3C[C@H](c4nnc(C)[nH]4)[C@@H](O)[C@H]3O)c2n1 [Cpd 17, (1S,2R,3R,5R)-3-(5-methyl-4H-[1,2,4]triazol-3-yl)-5-{7-[(2R)-2-phenylpropylamino]-5-propylsulfanyl-[1,2,3]triazolo[4,5-d]pyrimidin-3-yl}-cyclopentane-1,2-diol] | > 30
7 | 0.265 | 0.735 | CCCSc1nc(N[C@@H]2C[C@H]2c2ccccc2)c2nnn([C@@H]3C[C@H](c4nnc(C)[nH]4)[C@@H](O)[C@H]3O)c2n1 (mixture of isomers) [Cpd 14, (1S,2R,3R,5R)-3-(5-methyl-4H-[1,2,4]triazol-3-yl)-5-{7-[(1RS,2SR)-2-phenyl-cyclopropylamino]-5-propylsulfanyl-[1,2,3]triazolo[4,5-d]pyrimidin-3-yl}-cyclopentane-1,2-diol] | 0.064
8 | 0.264 | 0.061 | CCCSc1nc(N[C@H]2C[C@@H]2c2ccccc2)c2nnn([C@@H]3C[C@H](c4nnn[nH]4)[C@@H](O)[C@H]3O)c2n1 [Cpd 23, (1R,2S,3R,5R)-3-{7-[(1S,2R)-2-phenyl-cyclopropylamino]-5-propylsulfanyl-[1,2,3]triazolo[4,5-d]pyrimidin-3-yl}-5-(1H-tetrazol-5-yl)-cyclopentane-1,2-diol] | 0.04
9 | > 30 | 5.09 | CCCSc1nc(NCCSC)c2nnn([C@@H]3C[C@H](c4nnc(C)[nH]4)[C@@H](O)[C@H]3O)c2n1 [Cpd 19, (1R,2S,3R,5R)-3-[7-(2-methylsulfanyl-ethylamino)-5-propylsulfanyl-[1,2,3]triazolo[4,5-d]pyrimidin-3-yl]-5-(5-methyl-4H-[1,2,4]triazol-3-yl)-cyclopentane-1,2-diol] | > 30
10 | 10.4 | 3.74 | CCCSc1nc(NCCc2cccs2)c2nnn([C@@H]3C[C@H](c4nnc(C)[nH]4)[C@@H](O)[C@H]3O)c2n1 [Cpd 15, (1S,2R,3R,5R)-3-(5-methyl-4H-[1,2,4]triazol-3-yl)-5-[5-propylsulfanyl-7-(2-thiophen-2-yl-ethylamino)-[1,2,3]triazolo[4,5-d]pyrimidin-3-yl]-cyclopentane-1,2-diol] | 6.47
11 | 0.045 | 0.0137 | CCCCNc1nc(SCCC)nc2c1nnn2[C@@H]1C[C@H](c2nnn[nH]2)[C@@H](O)[C@H]1O [Cpd 2, (1R,2S,3R,5R)-3-(7-butylamino-5-propylsulfanyl-[1,2,3]triazolo[4,5-d]pyrimidin-3-yl)-5-(1H-tetrazol-5-yl)-cyclopentane-1,2-diol] | 0.315
12 | 2.02 | 0.237 | CCCSc1nc(NC[C@@H]2CCCO2)c2nnn([C@@H]3C[C@H](c4nnn[nH]4)[C@@H](O)[C@H]3O)c2n1 [Cpd 9, (1R,2S,3R,5R)-3-(5-propylsulfanyl-7-{[(2S)-tetrahydro-furan-2-ylmethyl]-amino}-[1,2,3]triazolo[4,5-d]pyrimidin-3-yl)-5-(1H-tetrazol-5-yl)-cyclopentane-1,2-diol] | 4.37
